Test results taken from PubChem BioAssay AID330 (DTP/NCI, 2004).
Values joined by “and” are separate entries in the source; they are usually repeats but may differ in a detail not shown here. Identical values can stand only once. Toxic doses and inconclusive results are not listed. How the source made its calls: active means survival T/C of 150% or more; inactive means T/C below 125% in these data.

Tested on: P388 leukemia ip, CD2F1 mice, survival T/C
Test: NCI In Vivo Anticancer Drug Screen. Data for tumor model P388 Leukemia (intraperitoneal) in CD2F1 (CDF1) mice
Conditions: endpoint: median survival time, higher = longer survival
How it was run: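 Mice carrying the transplanted tumor received test compound or vehicle. Survival was recorded in each group, and the value is the treated-group measurement divided by that of the vehicle-treated control group.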

[1] = dose: 60.0 mg/kg/injection, schedule: Q01DX005 (ip), vehicle: saline
[2] = dose: 50.0 mg/kg/injection, schedule: Q01DX005 (ip), vehicle: Klucel (hydroxypropylcellulose) (HPC)
[3] = dose: 60.0 mg/kg/injection, schedule: Q01DX005 (ip), vehicle: saline with Tween-80
[4] = dose: 120.0 mg/kg/injection, schedule: Q01DX005 (ip), vehicle: saline with Tween-80
[5] = dose: 50.0 mg/kg/injection, schedule: Q01DX009 (ip), vehicle: Klucel (hydroxypropylcellulose) (HPC)
[6] = dose: 100.0 mg/kg/injection, schedule: Q01DX009 (ip), vehicle: Klucel (hydroxypropylcellulose) (HPC)
[7] = dose: 50.0 mg/kg/injection, schedule: Q01DX009 (ip), vehicle: saline with Tween-80
[8] = dose: 100.0 mg/kg/injection, schedule: Q01DX009 (ip), vehicle: saline with Tween-80
[9] = dose: 200.0 mg/kg/injection, schedule: Q01DX009 (ip), vehicle: saline with Tween-80
[10] = dose: 50.0 mg/kg/injection, schedule: Q01DX009 (ip), vehicle: saline
[11] = dose: 100.0 mg/kg/injection, schedule: Q01DX009 (ip), vehicle: saline
[12] = dose: 25.0 mg/kg/injection, schedule: Q01DX009 (ip), vehicle: saline
[13] = dose: 200.0 mg/kg/injection, schedule: Q01DX009 (ip), vehicle: Klucel (hydroxypropylcellulose) (HPC)

Measured: T/C

COC(=O)CCC1=C(C)c2cc3cc(C)c(cc4cc(C)c(cc5nc(cc1n2)C(CCC(=O)OC)=C5C)[nH]4)[nH]3
inactive: dose: 0.75 mg/kg/injection, schedule: Q01DX005 (ip), vehicle: saline with Tween-80 96 % of control | dose: 1.5 mg/kg/injection, schedule: Q01DX005 (ip), vehicle: saline with Tween-80 98 % of control | dose: 3.0 mg/kg/injection, schedule: Q01DX005 (ip), vehicle: saline with Tween-80 91 % of control | dose: 3.12 mg/kg/injection, schedule: Q01DX005 (ip), vehicle: saline with Tween-80 90 % of control

Cc1ccc(S(=O)(=O)C23N=NC(C)(C)C2N=NC3(C)C)cc1 (stereo not given)
inactive: dose: 60.0 mg/kg/injection, schedule: Q01DX005 (ip), vehicle: Klucel (hydroxypropylcellulose) (HPC) 101 % of control | dose: 120.0 mg/kg/injection, schedule: Q01DX005 (ip), vehicle: Klucel (hydroxypropylcellulose) (HPC) 100 % of control | dose: 240.0 mg/kg/injection, schedule: Q01DX005 (ip), vehicle: Klucel (hydroxypropylcellulose) (HPC) 98 % of control

C[C@@H]1[C@H](c2ccccc2)OCN1C
inactive: dose: 12.5 mg/kg/injection, schedule: Q01DX005 (ip), vehicle: saline 101 % of control and 93 % of control | dose: 25.0 mg/kg/injection, schedule: Q01DX005 (ip), vehicle: saline 101 % of control | dose: 30.0 mg/kg/injection, schedule: Q01DX005 (ip), vehicle: saline 111 % of control | dose: 50.0 mg/kg/injection, schedule: Q01DX005 (ip), vehicle: saline 109 % of control and 124 % of control | [1] 118 % of control | dose: 100.0 mg/kg/injection, schedule: Q01DX005 (ip), vehicle: saline 111 % of control and 120 % of control | dose: 200.0 mg/kg/injection, schedule: Q01DX005 (ip), vehicle: saline 109 % of control

CSC(=O)/N=C(/NC(=O)c1ccccc1)SC
inactive: [2] 93 % of control | dose: 100.0 mg/kg/injection, schedule: Q01DX005 (ip), vehicle: Klucel (hydroxypropylcellulose) (HPC) 91 % of control | dose: 200.0 mg/kg/injection, schedule: Q01DX005 (ip), vehicle: Klucel (hydroxypropylcellulose) (HPC) 92 % of control

Nc1ccc2ccc(N)nc2c1
inactive: dose: 50.0 mg/kg/injection, schedule: Q01DX009 (ip), vehicle: acid diluted with saline 105 % of control

CCOC(=O)N1Cc2cc3cc(Cl)ccc3nc2C1
inactive: dose: 3.13 mg/kg/injection, schedule: Q01DX009 (ip), vehicle: saline with Tween-80 98 % of control | dose: 6.25 mg/kg/injection, schedule: Q01DX009 (ip), vehicle: saline with Tween-80 105 % of control | dose: 8.0 mg/kg/injection, schedule: Q01DX009 (ip), vehicle: saline with Tween-80 95 % of control | dose: 12.5 mg/kg/injection, schedule: Q01DX009 (ip), vehicle: saline with Tween-80 105 % of control | dose: 16.0 mg/kg/injection, schedule: Q01DX009 (ip), vehicle: saline with Tween-80 88 % of control | dose: 25.0 mg/kg/injection, schedule: Q01DX009 (ip), vehicle: saline with Tween-80 116 % of control | dose: 32.0 mg/kg/injection, schedule: Q01DX009 (ip), vehicle: saline with Tween-80 87 % of control | dose: 64.0 mg/kg/injection, schedule: Q01DX009 (ip), vehicle: saline with Tween-80 95 % of control | dose: 128.0 mg/kg/injection, schedule: Q01DX009 (ip), vehicle: saline with Tween-80 100 % of control

CSC(=S)/C(=C/Nc1ccccn1)c1ccccc1
inactive: dose: 0.93 mg/kg/injection, schedule: Q01DX005 (ip), vehicle: Klucel (hydroxypropylcellulose) (HPC) 100 % of control | dose: 1.87 mg/kg/injection, schedule: Q01DX005 (ip), vehicle: Klucel (hydroxypropylcellulose) (HPC) 94 % of control

O=S(=O)(Nc1ccc(Cl)cc1C(F)(F)F)c1ccc(F)cc1
inactive: [3] 100 % of control | [4] 110 % of control

N#CCSCC#N
inactive: [3] 100 % of control | [4] 100 % of control | dose: 240.0 mg/kg/injection, schedule: Q01DX005 (ip), vehicle: saline with Tween-80 104 % of control

Cc1ccc(C2(O)CC3CCC(C2)N3C)cc1 (stereo not given)
inactive: dose: 100.0 mg/kg/injection, schedule: Q01DX001 (ip), vehicle: Klucel (hydroxypropylcellulose) (HPC) 103 % of control | dose: 200.0 mg/kg/injection, schedule: Q01DX001 (ip), vehicle: Klucel (hydroxypropylcellulose) (HPC) 110 % of control | dose: 400.0 mg/kg/injection, schedule: Q01DX001 (ip), vehicle: Klucel (hydroxypropylcellulose) (HPC) 101 % of control

C=Cc1ccccc1NC(C(=O)O)c1ccccc1 (stereo not given)
inactive: dose: 50.0 mg/kg/injection, schedule: Q01DX005 (ip), vehicle: saline with Tween-80 107 % of control | dose: 100.0 mg/kg/injection, schedule: Q01DX005 (ip), vehicle: saline with Tween-80 106 % of control | dose: 200.0 mg/kg/injection, schedule: Q01DX005 (ip), vehicle: saline with Tween-80 104 % of control

CCOC(=O)c1ccc(NC(=O)SC2=NCCS2)cc1
inactive: [5] 101 % of control | [6] 103 % of control

CC(=O)OCC1(C)NC(=O)c2ccccc2O1 (stereo not given)
inactive: [7] 109 % of control (2×) and 120 % of control | [8] 114 % of control and 118 % of control | [9] 100 % of control

CCOCC1OCCCO1
inactive: [1] 104 % of control | dose: 120.0 mg/kg/injection, schedule: Q01DX005 (ip), vehicle: saline 103 % of control | dose: 240.0 mg/kg/injection, schedule: Q01DX005 (ip), vehicle: saline 103 % of control

CCC[CH2][Sn]([Cl])([CH2]CCC)[S]C(=S)NCCNC(=S)[S][Sn]([Cl])([CH2]CCC)[CH2]CCC
inactive: dose: 0.78 mg/kg/injection, schedule: Q01DX009 (ip), vehicle: Klucel (hydroxypropylcellulose) (HPC) 93 % of control | dose: 1.56 mg/kg/injection, schedule: Q01DX009 (ip), vehicle: Klucel (hydroxypropylcellulose) (HPC) 98 % of control

N#C/C(=C\c1cccs1)C(N)=S
inactive: [10] 100 % of control | [11] 102 % of control | dose: 200.0 mg/kg/injection, schedule: Q01DX009 (ip), vehicle: saline 100 % of control

O=S1(=O)CS(=O)(=O)OCCCCCO1
active: dose: 6.25 mg/kg/injection, schedule: Q01DX005 (ip), vehicle: Klucel (hydroxypropylcellulose) (HPC) 161 % of control | dose: 12.5 mg/kg/injection, schedule: Q01DX005 (ip), vehicle: Klucel (hydroxypropylcellulose) (HPC) 211 % of control and 213 % of control | dose: 25.0 mg/kg/injection, schedule: Q01DX005 (ip), vehicle: Klucel (hydroxypropylcellulose) (HPC) 255 % of control and 288 % of control | [2] 165 % of control and 288 % of control

Cc1cnc(N)c(S(=O)(=O)O)c1
inactive: [12] 86 % of control | [10] 88 % of control

CCCCCCCCCCCCCCCCS(=O)(=O)N/N=C(\c1ccc(O)c(OC)c1)N1CCOCC1
inactive: [5] 110 % of control | [6] 101 % of control | [13] 96 % of control

O=[N+]([O-])C(CO)CCC(CO)[N+](=O)[O-] (stereo not given)
inactive: dose: 100.0 mg/kg/injection, schedule: Q04DX003 (ip), vehicle: Klucel (hydroxypropylcellulose) (HPC) 96 % of control | dose: 200.0 mg/kg/injection, schedule: Q04DX003 (ip), vehicle: Klucel (hydroxypropylcellulose) (HPC) 98 % of control | dose: 400.0 mg/kg/injection, schedule: Q04DX003 (ip), vehicle: Klucel (hydroxypropylcellulose) (HPC) 88 % of control

CC1CC(C)(C)N=C(C2(c3ccccc3)CC2)O1 (stereo not given)
inactive: [7] 109 % of control | [8] 109 % of control | [9] 100 % of control

CCOC(=O)C(N)CSC (stereo not given)
inactive: dose: 50.0 mg/kg/injection, schedule: Q01DX009 (ip), vehicle: water 97 % of control | dose: 200.0 mg/kg/injection, schedule: Q01DX009 (ip), vehicle: water 103 % of control | dose: 400.0 mg/kg/injection, schedule: Q01DX009 (ip), vehicle: water 106 % of control

c1ccc(Nc2nnnn2C2CCCCC2)cc1
inactive: dose: 6.25 mg/kg/injection, schedule: Q01DX009 (ip), vehicle: saline 101 % of control | dose: 12.5 mg/kg/injection, schedule: Q01DX009 (ip), vehicle: saline 105 % of control | [12] 100 % of control | [10] 108 % of control

CN(C)CCC(=O)c1ccc(Cl)cc1
inactive: [10] 106 % of control | [11] 105 % of control

CC(C)(C)c1cc(C(c2ccccc2)(c2ccccc2)c2ccccc2)cc2c1[O][Sb]([c]1ccccc1)([c]1ccccc1)([c]1ccccc1)[NH]2
inactive: [5] 102 % of control | [6] 103 % of control | [13] 116 % of control
